Patent US4352803A, “Novel naphthyridine derivatives, intermediates thereof, processes for preparation thereof, and use thereof” (Dainippon Pharmaceutical Co., Ltd., priority 1978, dated 1982)
Converted amounts (≈) assume the structure as drawn. “Also recorded” adds a separate entry of the source. Read-outs that look alike come from different tables or passages of the source.

Experiments:
[1] = test system: Staphylococcus aureus 209P JC-1; assay: In vitro antibacterial activity (MIC), Staphylococcus aureus 209P JC-1; type: cell-based; details: Staphylococcus aureus 209P JC-1; read-out: minimum inhibitory concentration (MIC)
Source text: (§1) (MIC) (μg/ml) Method; Chemotherapy, 22(6), 1126 (1974)

[2] = test system: Staphylococcus aureus No. 50774; assay: In vitro antibacterial activity (MIC), Staphylococcus aureus No. 50774; type: cell-based; details: Staphylococcus aureus No. 50774; read-out: minimum inhibitory concentration (MIC)
Source text: as §1

[3] = test system: Streptococcus faecalis P-2473; assay: In vitro antibacterial activity (MIC), Streptococcus faecalis P-2473; type: cell-based; details: Enterococcus faecalis, P2473; Streptococcus faecalis P-2473; read-out: minimum inhibitory concentration (MIC)
Source text: as §1

[4] = test system: Streptococcus pyogenes 65A; assay: In vitro antibacterial activity (MIC), Streptococcus pyogenes 65A; type: cell-based; details: Streptococcus pyogenes 65A; read-out: minimum inhibitory concentration (MIC)
Source text: as §1

[5] = test system: Corynebacterium pyogenes C-21; assay: In vitro antibacterial activity (MIC), Corynebacterium pyogenes C-21; type: cell-based; details: Rhodococcus (subgen. Prescottella) equi, C21; Corynebacterium pyogenes C-21; read-out: minimum inhibitory concentration (MIC)
Source text: as §1

[6] = test system: Escherichia coli NIHJ JC-2; assay: In vitro antibacterial activity (MIC), Escherichia coli NIHJ JC-2; type: cell-based
Source text: as §1

Escherichia coli P-5101 [7] = assay: In vitro antibacterial activity (MIC), Escherichia coli P-5101; type: cell-based; details: P5101; Escherichia coli P-5101; read-out: minimum inhibitory concentration (MIC)
Source text: as §1

Escherichia coli P-140a = assay: In vitro antibacterial activity (MIC), Escherichia coli P-140a; type: cell-based; details: read-out: minimum inhibitory concentration (MIC)
Source text: as §1

[8] = test system: Salmonella typhimurium 8-9; assay: In vitro antibacterial activity (MIC), Salmonella typhimurium 8-9; type: cell-based; details: Salmonella enterica, read-out: minimum inhibitory concentration (MIC)
Source text: as §1

[9] = test system: Salmonella enteritidis No. 1891; assay: In vitro antibacterial activity (MIC), Salmonella enteritidis No. 1891; type: cell-based; details: Salmonella enterica; Salmonella enteritidis No. 1891; read-out: minimum inhibitory concentration (MIC)
Source text: as §1

Shigella flexneri 2a = assay: In vitro antibacterial activity (MIC), Shigella flexneri 2a; type: cell-based; details: read-out: minimum inhibitory concentration (MIC)
Source text: as §1

[10] = test system: Shigella flexneri 4a P-330; assay: In vitro antibacterial activity (MIC), Shigella flexneri 4a P-330; type: cell-based; details: 4AP330, read-out: minimum inhibitory concentration (MIC)
Source text: as §1

[11] = test system: Klebsiella pneumoniae No. 13; assay: In vitro antibacterial activity (MIC), Klebsiella pneumoniae No. 13; type: cell-based
Source text: as §1

[12] = test system: Enterobacter cloacae P-2540; assay: In vitro antibacterial activity (MIC), Enterobacter cloacae P-2540; type: cell-based
Source text: as §1

[13] = test system: Pseudomonas aeruginosa Tsuchijima; assay: In vitro antibacterial activity (MIC), Pseudomonas aeruginosa Tsuchijima; type: cell-based; details: Pseudomonas aeruginosa Tsuchijima; read-out: minimum inhibitory concentration (MIC)
Source text: as §1

[14] = test system: Pseudomonas aeruginosa No. 12; assay: In vitro antibacterial activity (MIC), Pseudomonas aeruginosa No. 12; type: cell-based; details: Pseudomonas aeruginosa No. 12; read-out: minimum inhibitory concentration (MIC)
Source text: as §1

[15] = test system: Serratia marcescens IFC 3736; assay: In vitro antibacterial activity (MIC), Serratia marcescens IFC 3736; type: cell-based
Source text: as §1

Proteus morganii Kono = assay: In vitro antibacterial activity (MIC), Proteus morganii Kono; type: cell-based; details: Morganella morganii, read-out: minimum inhibitory concentration (MIC)
Source text: as §1

Proteus mirabilis P-2381 = assay: In vitro antibacterial activity (MIC), Proteus mirabilis P-2381; type: cell-based; details: P2381; Proteus mirabilis P-2381; read-out: minimum inhibitory concentration (MIC)
Source text: as §1

[16] = test system: Pseudomonas aeruginosa No. 12; assay: in vivo efficacy on the ascending kidney infection in mice; set-up: species or system mice (ddY-S); details: 120 h; ascending kidney infection with Pseudomonas aeruginosa No. 12; po; mice
Method: Female mice (ddY-S) weighing 22 to 30 g were anesthetized by intravenous injection of sodium pentobarbital at a dose of 50 mg/kg. Through a small suprapubic incision, the urinary bladder was exposed and then infected by injecting 0.1 ml of a 1:10,000 dilution of Pseudomonas aeruginosa No. 12 cultured for 20 hours in trypto-soy broth, using 0.25 ml syringe with 0.25 mm needle. The mice were restrained from drinking water for a period from 1 day before to 1 day after the infection and treated twice a day for 3 days starting on the day of infection. On the 5th day after infection, the kidneys were harvested for the detection of the bacteria, transversely bisected and stamped on King A Agar, which were incubated at 37° C. overnight. No bacterial finding in the kidneys was regarded as protected from the ascending kindey infection. ED50 values were calculated by probit analysis.

in vivo = details: mouse, in vivo, po
Method: The number of dead mice was counted after 7 days, and the value of median lethal dose (LD50, mg/kg) was calculated in accordance with the Behrens-Kaerber method.

Plasma level in dogs = type: in vivo, Beagle dogs; details: dog, plasma
Method: Two male Beagle dogs weighing 12 kg each were orally given a capsule containing one of compounds 1 and 2 at a dose of 25 mg/kg with 200 ml of milk respectively. Blood samples were taken by venipuncture from the two dogs at each 0.5, 1, 2, 3, 6, 8 and 10 hours after administration, and centrifuged individually to separate the plasma.
Drug levels were determined by the thin-layer cup-plate method using Escherichia coli Kp as an indicator organism.

[17] = Urinary excretion in dogs; type: in vivo, Beagle dogs; details: dog, urine, po, 25 mg/kg, urine pooled over 24 hours, oral 25 mg/kg
Escherichia coli P-5101 [18] = assay: in vivo efficacy against systemic infection in mice, Escherichia coli P-5101; details: P5101, in Mus musculus, po, 168 h
Method: Male mice (ddY) weighing about 20 g
Intraperitoneal infection with (about
9 × 10^6 cells/mouse) of a bacterial
(§2) suspension in trypto-soy broth with 4% mucin.
(§3) Twice, about 5 minutes and 6 hours after infection.

[19] = test system: Pseudomonas aeruginosa No. 12; assay: in vivo efficacy against systemic infection in mice, Pseudomonas aeruginosa No. 12; details: NO.12, in Mus musculus, po, 168 h
Method: Male mice (ddY) weighing about 20 g
(3) Pseudomonas aeruginosa No. 12;
(about 5 × 10^3 cells/mouse) of a bacterial
as §2, §3
The numerals in the table show ED50 (mg/kg). ED50 values were

[20] = test system: Staphylococcus aureus No. 50774; assay: in vivo efficacy against systemic infection in mice, Staphylococcus aureus No. 50774; details: NO.50774, in Mus musculus, po, 336 h
Method: Male mice (ddY) weighing about 20 g
Intravenous infection with (about
5 × 10^8 cells/mouse) of a bacterial
as §3

[21] = test system: Gram-positive bacteria and Gram-negative bacteria; assay: In vitro antibacterial activity against 19 strains of bacteria (overall); type: cell-based; details: comparisons are with compounds of the invention
Source text: as §1

[22] = test system: Gram-positive and Gram-negative bacteria; assay: in vivo therapeutic efficacy against systemic infections in mice (overall); set-up: species or system mice (ddY); details: systemic infections with Gram-positive and Gram-negative bacteria

Compound	MIC [1]	MIC [2]	MIC [3]	MIC [4]	MIC [5]	MIC (Escherichia coli P-5101 [7])	MIC [9]	MIC (Shigella flexneri 2a)	MIC [10]	MIC [13]	MIC [14]	MIC (Proteus mirabilis P-2381)	ED50 [19]	ED50 [20]	also measured
CCn1cc(C(=O)O)c(=O)c2cc(F)c(N3CCNCC3)nc21 [Compound 1]	0.78 µg/mL (≈ 2.44 µM)	0.78 µg/mL (≈ 2.44 µM)	12.5 µg/mL (≈ 39 µM)	12.5 µg/mL (≈ 39 µM)	1.56 µg/mL (≈ 4.87 µM)	0.1 µg/mL (≈ 0.312 µM)	0.1 µg/mL (≈ 0.312 µM)	0.2 µg/mL (≈ 0.624 µM)	0.39 µg/mL (≈ 1.22 µM)	0.39 µg/mL (≈ 1.22 µM)	0.78 µg/mL (≈ 2.44 µM)	0.39 µg/mL (≈ 1.22 µM)	9 mg/kg	10 mg/kg	MIC ([6]; NIHJJC2, Escherichia coli NIHJ JC-2, read-out: minimum inhibitory concentration (MIC)): 0.2 µg/mL (≈ 0.624 µM); MIC (Escherichia coli P-140a; P140A, Escherichia coli P-140a): 0.2 µg/mL (≈ 0.624 µM); MIC ([8]; Salmonella typhimurium 8-9): 0.1 µg/mL (≈ 0.312 µM); MIC ([11]; Klebsiella pneumoniae No. 13, read-out: minimum inhibitory concentration (MIC)): 0.2 µg/mL (≈ 0.624 µM); MIC ([12]; P2540, Enterobacter cloacae P-2540, read-out: minimum inhibitory concentration (MIC)): 0.2 µg/mL (≈ 0.624 µM); MIC ([15]; IFC3736, Serratia marcescens IFC 3736, read-out: minimum inhibitory concentration (MIC)): 0.39 µg/mL (≈ 1.22 µM); MIC (Proteus morganii Kono; Proteus morganii Kono): 0.2 µg/mL (≈ 0.624 µM); ED50 [16]: 2.4 mg/kg; LD50 at 168 h (in vivo): > 4000 mg/kg; concentration at 0.5 h (Plasma level in dogs; 0.5 hr after oral 25 mg/kg, nd: nondetective): 600 ng/mL; concentration at 1 h (Plasma level in dogs; 1 hr after oral 25 mg/kg, nd: nondetective): 2400 ng/mL; concentration at 2 h (Plasma level in dogs; 2 hr after oral 25 mg/kg): 5500 ng/mL; concentration at 3 h (Plasma level in dogs; 3 hr after oral 25 mg/kg): 5900 ng/mL; concentration at 6 h (Plasma level in dogs; 6 hr after oral 25 mg/kg): 4200 ng/mL; concentration at 8 h (Plasma level in dogs; 8 hr after oral 25 mg/kg): 3700 ng/mL; concentration at 10 h (Plasma level in dogs; 10 hr after oral 25 mg/kg): 2400 ng/mL; concentration at 24 h [17]: 606000 ng/mL; dose excreted at 24 h ([17]; read-out: urinary recovery): 40.7%; ED50 (Escherichia coli P-5101 [18]): 1.8 mg/kg
CCn1cc(C(=O)O)c(=O)c2ccc(N3CCNCC3)nc21 [Compound A, 1-Ethyl-1,4-dihydro-4-oxo-7-(1-piperazinyl)-1,8-naphthyridine-3-carboxylic acid]	25 µg/mL (≈ 82.7 µM)	50 µg/mL (≈ 165 µM)	> 100 µg/mL	50 µg/mL (≈ 165 µM)	50 µg/mL (≈ 165 µM)	3.13 µg/mL (≈ 10.4 µM)	1.56 µg/mL (≈ 5.16 µM)	6.25 µg/mL (≈ 20.7 µM)	12.5 µg/mL (≈ 41.3 µM)	25 µg/mL (≈ 82.7 µM)	25 µg/mL (≈ 82.7 µM)	25 µg/mL (≈ 82.7 µM)	> 200 mg/kg	> 100 mg/kg	MIC ([6]; Escherichia coli, NIHJJC2, read-out: minimum inhibitory concentration (MIC)): 6.25 µg/mL (≈ 20.7 µM); MIC (Escherichia coli P-140a; Escherichia coli): 6.25 µg/mL (≈ 20.7 µM); MIC ([8]; TYPHIMURIUM): 6.25 µg/mL (≈ 20.7 µM); MIC ([11]; Klebsiella pneumoniae, NO.13, read-out: minimum inhibitory concentration (MIC)): 12.5 µg/mL (≈ 41.3 µM); MIC ([12]; Enterobacter cloacae, P2540, read-out: minimum inhibitory concentration (MIC)): 6.25 µg/mL (≈ 20.7 µM); MIC ([15]; Serratia marcescens, IFC3736, read-out: minimum inhibitory concentration (MIC)): 12.5 µg/mL (≈ 41.3 µM); MIC (Proteus morganii Kono): 6.25 µg/mL (≈ 20.7 µM); antibacterial activity (in words) [21]: much inferior antibacterial activity; also recorded: clearly inferior; therapeutic effect / in vivo antibacterial activity (in words) [22]: clearly inferior
